Measured values reported in PubChem BioAssay AID248 (DTP/NCI, 2004).
Values joined by “and” are separate entries in the source; they are usually repeats but may differ in a detail not shown here. Equal values may be shown once. Toxic doses and inconclusive results are not listed. Cut-off read from the data, not from the text of the source: active = T/C of 150% or more; inactive = T/C below 125%.

Tested on: L1210 leukemia ip in BDF1 mice, survival T/C
Assay: NCI In Vivo Anticancer Drug Screen. Data for tumor model L1210 Leukemia (intraperitoneal) in B6D2F1 (BDF1) mice
Conditions: endpoint: mean survival time, higher = longer survival
In short: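 Transplantable tumor model; survival measured in treated vs vehicle control mice. Value = treated/control.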

[1] = dose: 100.0 mg/kg/injection, schedule: Q04DX003 (ip), vehicle: Klucel (hydroxypropylcellulose) (HPC)

Measured: T/C

COc1ccc(C2=Cc3ccc(OC(C)=O)cc3OC2)cc1
inactive: dose: 50.0 mg/kg/injection, schedule: Q01DX001 (sc), vehicle: steriod suspending solution 101 % of control | dose: 100.0 mg/kg/injection, schedule: Q01DX001 (sc), vehicle: steriod suspending solution 103 % of control | dose: 200.0 mg/kg/injection, schedule: Q01DX001 (sc), vehicle: steriod suspending solution 101 % of control | dose: 400.0 mg/kg/injection, schedule: Q01DX001 (sc), vehicle: steriod suspending solution 95 % of control

CCC(=O)O[C@H]1CC[C@H]2[C@@H]3CC[C@H]4CC(=O)[C@H](C)C[C@]4(C)[C@H]3CC[C@]12C
inactive: dose: 44.13 mg/kg/injection, schedule: Q01DX Z (sc), vehicle: steriod suspending solution 96 % of control | dose: 88.25 mg/kg/injection, schedule: Q01DX Z (sc), vehicle: steriod suspending solution 104 % of control | dose: 176.5 mg/kg/injection, schedule: Q01DX Z (sc), vehicle: steriod suspending solution 103 % of control | dose: 353.0 mg/kg/injection, schedule: Q01DX Z (sc), vehicle: steriod suspending solution 100 % of control

CC(C#N)NCc1ccc2c(c1)OCO2 (configuration not stated)
inactive: dose: 50.0 mg/kg/injection, schedule: Q01DX001 (ip), vehicle: carboxymethylcellulose (CMC) 112 % of control | dose: 200.0 mg/kg/injection, schedule: Q01DX001 (ip), vehicle: carboxymethylcellulose (CMC) 96 % of control

O=C1c2ccccc2C(=O)N1CCCO
inactive: dose: 50.0 mg/kg/injection, schedule: Q01DX001 (ip), vehicle: Klucel (hydroxypropylcellulose) (HPC) 96 % of control | dose: 100.0 mg/kg/injection, schedule: Q01DX001 (ip), vehicle: Klucel (hydroxypropylcellulose) (HPC) 100 % of control | dose: 200.0 mg/kg/injection, schedule: Q01DX001 (ip), vehicle: Klucel (hydroxypropylcellulose) (HPC) 102 % of control

O=C(Oc1cccc(OC(=O)c2ccccc2)c1)c1ccccc1
inactive: dose: 100.0 mg/kg/injection, schedule: Q04DX003 (ip), vehicle: saline with Tween-80 100 % of control | dose: 200.0 mg/kg/injection, schedule: Q04DX003 (ip), vehicle: saline with Tween-80 91 % of control | dose: 400.0 mg/kg/injection, schedule: Q04DX003 (ip), vehicle: saline with Tween-80 88 % of control

CC(=O)c1cccc(NC(=O)COc2cc(Cl)c(Cl)cc2Cl)c1
inactive: dose: 100.0 mg/kg/injection, schedule: Q04DX002 (ip), vehicle: Klucel (hydroxypropylcellulose) (HPC) 106 % of control | dose: 200.0 mg/kg/injection, schedule: Q04DX002 (ip), vehicle: Klucel (hydroxypropylcellulose) (HPC) 113 % of control | dose: 400.0 mg/kg/injection, schedule: Q04DX002 (ip), vehicle: Klucel (hydroxypropylcellulose) (HPC) 102 % of control

COc1ccccc1C1OCC(C)(C)CO1
inactive: dose: 100.0 mg/kg/injection, schedule: Q01DX009 (ip), vehicle: Klucel (hydroxypropylcellulose) (HPC) 90 % of control | [1] 109 % of control | dose: 200.0 mg/kg/injection, schedule: Q01DX009 (ip), vehicle: Klucel (hydroxypropylcellulose) (HPC) 95 % of control | dose: 200.0 mg/kg/injection, schedule: Q04DX003 (ip), vehicle: Klucel (hydroxypropylcellulose) (HPC) 103 % of control | dose: 400.0 mg/kg/injection, schedule: Q01DX009 (ip), vehicle: Klucel (hydroxypropylcellulose) (HPC) 92 % of control | dose: 400.0 mg/kg/injection, schedule: Q04DX003 (ip), vehicle: Klucel (hydroxypropylcellulose) (HPC) 108 % of control

Cc1ccc(CC(=O)O)cc1C
inactive: dose: 100.0 mg/kg/injection, schedule: Q01DX009 (ip), vehicle: saline with Tween-80 101 % of control | dose: 200.0 mg/kg/injection, schedule: Q01DX009 (ip), vehicle: saline with Tween-80 104 % of control | dose: 400.0 mg/kg/injection, schedule: Q01DX009 (ip), vehicle: saline with Tween-80 102 % of control

CCOc1ccc([N+](=O)[O-])cc1CNCCCl
inactive: dose: 25.0 mg/kg/injection, schedule: Q04DX003 (ip), vehicle: Klucel (hydroxypropylcellulose) (HPC) 102 % of control | dose: 50.0 mg/kg/injection, schedule: Q04DX003 (ip), vehicle: Klucel (hydroxypropylcellulose) (HPC) 98 % of control | [1] 98 % of control and 104 % of control

O=S(=O)(CCCCl)N1CCOCC1
inactive: dose: 100.0 mg/kg/injection, schedule: Q01DX001 (ip), vehicle: saline 102 % of control | dose: 100.0 mg/kg/injection, schedule: Q04DX003 (ip), vehicle: saline 97 % of control | dose: 200.0 mg/kg/injection, schedule: Q01DX001 (ip), vehicle: saline 106 % of control | dose: 200.0 mg/kg/injection, schedule: Q04DX003 (ip), vehicle: saline 106 % of control | dose: 400.0 mg/kg/injection, schedule: Q01DX001 (ip), vehicle: saline 100 % of control | dose: 400.0 mg/kg/injection, schedule: Q04DX003 (ip), vehicle: saline 95 % of control
